Source: patent US20030157084A1, “Methods for preparing purified prostaglandin E synthase” (priority 2001, published 2003)
Read-outs that look alike come from different tables or passages of the source.

Key:
purified His6-hPGES [1] = biological target: T1, purified His6-hPGES (Homo sapiens, UniProt O14684); assay: PGES activity assay: glutathione dependent conversion of PGH2 to PGE2 by purified His6-hPGES; type: biochemical; set-up: made in house; host or cells: E. coli BL21(DE3) with pLysSL; conditions: sulfhydryl compound in place of GSH
T1 sequence (O14684 1-152): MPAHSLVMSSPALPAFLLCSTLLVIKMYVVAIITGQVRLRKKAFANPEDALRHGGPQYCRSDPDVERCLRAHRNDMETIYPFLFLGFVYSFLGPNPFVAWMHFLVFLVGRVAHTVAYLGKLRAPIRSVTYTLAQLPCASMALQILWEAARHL

purified His6-hPGES [2] = biological target: T1, purified His6-hPGES; assay: Reduction of 15-hydroperoxy-PGE2 (peroxidase activity) by purified his6-hPGES; type: biochemical; set-up: made in house; host or cells: E. coli BL21(DE3) with pLysSL; conditions: 37 ° C., 0.1 mg/ml enzyme, 0.16 mM 15 hydroperoxy-PGE2
Method: This is presented in a typical chromatogram (FIG. 12B) as compared to the buffer control (FIG. 12C) after 30 seconds of incubation.

purified His6-hPGES [3] = biological target: T1, purified His6-hPGES; assay: PGES activity assay: glutathione dependent conversion of PGH2 to PGE2 by purified His6-hPGES; type: biochemical; set-up: made in house; host or cells: E. coli BL21(DE3) with pLysSL; conditions: for Specific activity: at Vmax
Method: PGE synthase activity of the purified polypeptide, i.e., the ability to catalyze the conversion of a substrate of PGES into a 9-keto, 11-alpha-hydroxy form, e.g., PGH2 into PGE2 can be determined as follows. […] The polypeptide suspected of having PGES activity is incubated in a buffer, e.g., a sodium phosphate buffer in the presence of about 1 to 5 mM, preferably, 2.5 mM glutathione (GSH). The reaction is started by the addition of PGH2 at about 5 to 20 μM, and preferably 10 uM, and the reaction mixture is then incubated either at 37° C., at room temperature, or preferably, at 0° C., for about one to ten minutes, and preferably, for about one minute. The reaction can be terminated by the addition of a solution reducing the pH to about 3 or 3.2. This can be achieved by the addition of acetonitrile/HCl (as described in Jakobsson et al. (1999) PNAS 96:7220) or by the addition of FeCl2, citric acid, and/or 11-beta PGE2, as described in the Examples. The formation of PGF2 alpha, PGE2 and PGD2 can be determined by reverse-phase high pressure liquid chromatograph (HPLC) and UV detection at 195 nm. For subjecting the proteins to HPLC, the reaction mixtures can be subjected to solid phase extraction, e.g., using C18 Chomabond columns; the samples eluted with acetone, dried and dissolved in acetonitrile. The samples are then ready for HPLC. More details of these methods are provided in the Examples, as well as in Jakobssen et al., supra, and in published PCT application No. WO 00/28022 by Jakobsson et al.
(§1) PGES activity was assayed in 50 mM sodium phosphate buffer, pH 7.4, in the presence of 2.5 mM reduced glutathione (GSH; obtained from Sigma Chemical Co. (St. Louis, Mo.) and either zero; 0.2; 0.4 or 0.6 mg/ml of purified hPGES. The reaction was started by the addition of 10 μM PGH2, and the samples were incubated for 1 minute at 0° C. until terminated by 20 mM FeCl2, 40 mM citric acid and 2.1 μM 11-β. PGE2, lowering the pH to 3. PGH2 was prepared by brief incubation of arachidonic acid with suspensions of the microsomal fraction of homogenate of the sheep vesicular gland essentially as described in Hamberg et al. (1974) PNAS 71:345 or Hecker et al. (1987) Biochem. Pharmacol. 36:851. L-tryptophan (5 mM) was used as electron donor. Purification was accomplished by straight-phase HPLC using a solvent system of 2.5% 2-propanol-hexane containing 0.002% acetic acid. Solid phase extraction using C18 Chromabond columns was performed immediately. The samples were eluted with acetone, dried and dissolved in acetonitrile (⅓ by vol. in H2O) and the formation of PGE2 was analyzed by reverse-phase HPLC on a C18 (3.9×150 mm, 4 μM particle size) column and UV detection at 195 nm.
(§2) The remaining protein was divided in two parts, one was stored at 4° C. for 5 days, and one was frozen and stored at −20° C. for the same time. The PGES activity in the three samples was compared with that in a membrane fraction without solubilization. PGES activity was determined, as described above, for various amounts of protein. The samples were incubated for 1 min on ice or at 37° C. before stopping the reaction. The activity of the purified proteins was compared with the activity in BL21(DE3) membrane fraction without solubilization.
(§3) All points were made in triplicate. The Michaelis-Menten constants KM and Vmax (maximum velocity) were derived by hyperbolic regression with the computer program GraphPad Prism software 3.0 or 3.02 (GraphPad Software, Inc., San Diego, Calif.).

purified His6-hPGES [4] = biological target: T1, purified His6-hPGES; assay: Glutathione transferase (GST) activity of purified His6-hPGES with CDNB; type: biochemical; set-up: made in house; host or cells: E. coli BL21(DE3) with pLysSL; conditions: pre-incubation with 5 mM N-ethylmaleimid in the absence of GSH for 1 minute
Method: Glutathione transferase (GST) activity (glutathione conjugation) was assayed with the classical model substrate for GSTs, p-chloro-2,4-dinitrobenzene (CDNB). […] Formation of product was detected at 340 nm (molar absorption coefficient for the product, GS-DNB, is 9.6 mM^−1 cm^−1).

purified His6-hPGES [5] = biological target: T1, purified His6-hPGES; assay: Isomerization of PGG2 into 15-hydroperoxy-PGE2 by purified His6-hPGES; type: biochemical; set-up: made in house; host or cells: E. coli BL21(DE3) with pLysSL
Method: PGG2 was prepared similarly to PGE2 (described above), omitting the L-tryptophan. The reaction was terminated by lowering the pH to 3 by adding 6 μl HCl (1M). Then, 45 μl acetonitrile was added and centrifugation was performed at 14,000 g, for 1 minute to remove the protein. […] In order to determine the formation of PGE2 and 15-Hydroperoxy PGE2, an aliquot (100 μl) was analyzed by RP-HPLC, combined with UV detection at 195 nm. The products were quantified based on the peak areas from known amounts of injected prostaglandins.

A549 cells = assay: Induction of PGE synthase and cyclooxygenase-2 in A549 cells; type: cell-based; conditions: IL-1β 1 ng/ml
Method: Microsomal fractions of A549 cells cultured with or without IL-1 β 1 ng/ml) for 0, 12, 24, 36 or 72 hours were subjected to SDS-PAGE and Western blot analysis. As positive control, the membrane fraction from bacteria expressing human PGE synthase was included. In all lanes of the gel, 10 μg of total protein was analyzed, except for the human PGE synthase where 2 μg was loaded. The Western blot was then incubated with antipeptide antiserum against PGE synthase. The blot was then stripped and incubated with antiserum against COX-2.
In order to study the possible correlation between the result from the Western blot and PGE synthase activity, the corresponding microsomes were incubated in the presence of PGH2 and reduced glutathione as described above. Briefly, microsomes (0.03 mg/ml) were incubated with PGH2 (11 μM) for 30 seconds at 0° C., followed by extraction and analysis by RP-HPLC. […] In addition, no corresponding activity was detected in the cytosolic fractions.

purified His6-hPGES [6] = biological target: T1, purified His6-hPGES; conditions: 37 ° C., 0.05 mg/ml enzyme, 1 mM GSH, 0.5 mM cumene hydroperoxide
[7] = type: physicochemical
Method: Membrane fractions were solubilized in 50 mM sodium phosphate buffer, pH 8.0, 150 mM NaCl, 4% Triton X-100, 10% glycerol and 1 mM GSH and stored at 4° C. Samples were assayed for PGES activity as described above after 0, 3, 6, 24 and 240 h (10 days) at 4° C.
as §2

[8] = Specific activity and kinetic properties of purified His6-hPGES for conversion of PGH2 to PGE2; type: biochemical; conditions: for Specific activity of the purified His6-hPGES: glutathione dependent conversion of PGH2 to PGE2
Method: as §1, §2, §3

[9] = 37° C., steady state, KM values apparent, read-out: KM

O[C@H](CS)[C@H](O)CS (racemic) [dithiothreitol]
PGES activity when GSH was substituted by other sulfhydryl compounds (purified His6-hPGES [1]): no PGES-activity could be detected

OCCS [2-mercaptoethanol]
PGES activity when GSH was substituted by other sulfhydryl compounds (purified His6-hPGES [1]): no PGES-activity could be detected

CCCCC[C@@H](/C=C/[C@H]1[C@H](O)CC(=O)[C@@H]1C/C=C\CCCC(=O)O)OO [15-hydroperoxy-PGE2, 15-Hydroperoxy PGE2]
Specific activity (reduction of 15-hydroperoxy-PGE2) (purified His6-hPGES [2]): 0.043 ± 0.019 µmol/min/mg
Specific activity (reduction of 15-hydroperoxy-PGE2) (purified His6-hPGES [2]; listed as 15-HP PGE2): no peroxidase activity towards this compound was detected

N[C@@H](CCC(=O)N[C@@H](CS)C(=O)NCC(=O)O)C(=O)O [GSH, reduced glutathione]
kcat (purified His6-hPGES [3]; 37° C., steady state): 21 ± 1 s⁻¹
Km (purified His6-hPGES [3]; [9]): 710 ± 200 µM

CC(=O)N[C@@H](CS)C(=O)O [N-acetylcysteine]
PGES activity when GSH was substituted by other sulfhydryl compounds (purified His6-hPGES [1]): no PGES-activity could be detected

CCN1C(=O)C=CC1=O [N-ethylmaleimide]
Reduction of GST enzyme activity (purified His6-hPGES [4]): 50%
Reduction of PGES activity (purified His6-hPGES [3]; pre-incubation with 5 mM N-ethylmaleimide in the absence of GSH for 1 minute): ~100%

CCCCC[C@@H](/C=C/[C@@H]1[C@@H](C/C=C\CCCC(=O)O)[C@@H]2C[C@H]1OO2)OO [PGG2]
kcat (purified His6-hPGES [5]; 37° C., steady state, PGG2 as substrate): 75 ± 4 s⁻¹
Km (purified His6-hPGES [5]; 37° C., steady state, PGG2 as substrate, apparent): 160 ± 30 µM
Specific activity (purified His6-hPGES [5]; 37 ° C., substrate PGG2, highest measured specific activity): 250 ± 15 µmol/min/mg

CCCCC[C@H](O)/C=C/[C@@H]1[C@@H](C/C=C\CCCC(=O)O)[C@@H]2C[C@H]1OO2 [PGH2, Prostaglandin endoperoxide H2]
Vmax (purified His6-hPGES [3]; 0° C., 1 μg/ml purified PGES, 2.5 mM GSH, varying PGH2): 0.25 ± 0.013 µM/s
Km (purified His6-hPGES [3]; 0° C., 1 μg/ml purified PGES, 2.5 mM GSH, varying PGH2, read-out: Km for PGH2): 50 ± 8.9 µM
Vmax (purified His6-hPGES [3]; 37° C., 1 μg/ml purified PGES, 2.5 mM GSH, varying PGH2): 1.39 ± 0.16 µM/s
Km (purified His6-hPGES [3]; 37° C., 1 μg/ml purified PGES, 2.5 mM GSH, varying PGH2, read-out: Km for PGH2): 163 ± 42 µM
kcat (purified His6-hPGES [3]; 37° C., steady state): 50 ± 6 s⁻¹
Km (purified His6-hPGES [3]; [9]): 160 µM
Specific activity (purified His6-hPGES [3]; substrate PGH2, 0 ° C.): 15 µmol/min/mg
Specific activity (purified His6-hPGES [3]; substrate PGH2, 37 ° C.): 170 ± 20 µmol/min/mg

IL-1β: proinflammatory cytokine interleukin-1β, added to A549 cells at 1 ng/ml
COX-2 and PGE synthase protein expression (Western blot) (A549 cells; microsomal fractions, 0-72 hours): tandem upregulation of COX-2 and PGE synthase proteins
PGE synthase activity in microsomes (A549 cells; up to 72 hours, microsomes 0.03 mg/ml, PGH2 11 μM, 30 seconds at 0° C.): increase over time

cumene hydroperoxide
Specific activity (GSH-dependent peroxidase) (purified His6-hPGES [6]): 0.17 ± 0.02 µmol/min/mg
Specific activity (GSH-dependent peroxidase) (purified His6-hPGES [6]; listed as cumene hydroperoxide): 0.17 µmol/min/mg

B1: His6-hPGES: full length human PGES fused at its N-terminus to six histidine residues (SEQ ID NO: 4), expressed in E. coli (protein)
chain: MHHHHHHMPAHSLVMSSPALPAFLLCSTLLVIKMYVVAIITGQVRLRKKAFANPEDALRHGGPQYCRSDPDVERCLRAHRNDMETIYPFLFLGFVYSFLGPNPFVAWMHFLVFLVGRVAHTVAYLGKLRAPIRSVTYTLAQLPCASMALQILWEAARHL
Original activity remaining ([7]; 816 h): about 50%
PGES activity in BL21 (DE3) membranes ([7]; in the absence of glycerol and GSH): rapidly declines within a period of 24 h
PGES activity after heating ([7]; purified enzyme heated at 100° C. for 10 minutes): no PGES-activity could be detected
Activity compared to the freshly prepared enzyme ([7]; purified enzyme, five days of storage at 4° C.): unchanged
Loss of activity on storage ([7]; purified enzyme, up to at least two months at −20° C.): does not seem to result in any loss of activity
Specific activity of the purified His6-hPGES ([8]; 0° C.): 15 µmol/min/mg
Specific activity of the purified His6-hPGES ([8]; 37° C.): 167 µmol/min/mg
Km ([8]; Human, recombinant): 163 µM
Spec. Act. ([8]; Human, recombinant): 167 µmol/min/mg
kcat ([8]; Human, recombinant): 50 s⁻¹
